Assay results published in US20260356856A1, “KRAS G12S AND G12C INHIBITORS” (MIRATI THERAPEUTICS, INC., priority 2023, published 2026).

Tests used:
KRas G12C = molecular target: T1, KRas G12C (Homo sapiens, UniProt P01116, G12C); assay: KRas binding assay, TR-FRET displacement of Cy5 labelled tracer; details: 60-minute incubation at room temperature, 1% DMSO, pH 7.5
T1 construct: Biotinylated KRas (corresponding to amino acids 1-169, produced at Accelegan Inc.); biotin (biotinylated); purchased Accelegan Inc
T1 sequence (P01116 1-169 isoform P01116-2 G12C): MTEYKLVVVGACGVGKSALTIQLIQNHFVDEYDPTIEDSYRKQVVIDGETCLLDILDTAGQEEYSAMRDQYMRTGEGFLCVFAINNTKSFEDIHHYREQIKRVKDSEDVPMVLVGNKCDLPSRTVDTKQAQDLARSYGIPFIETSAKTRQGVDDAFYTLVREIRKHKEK
Method in brief: (§1)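 Final conditions: 1% DMSO, pH 7.5 HEPES buffer, 60 min, room temperature. Protein: biotin-KRas 1-169 with terbium streptavidin. Output: IC50, four-parameter fit of POC.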

KRas G12S = molecular target: T2, KRas G12S (Homo sapiens, UniProt P01116, G12S); assay: as above; details: 60-minute incubation at room temperature, 1% DMSO, pH 7.5
T2 construct: Biotinylated KRas (corresponding to amino acids 1-169, produced at Accelegan Inc.); biotin (biotinylated); purchased Accelegan Inc
T2 sequence (P01116 1-169 isoform P01116-2 G12S): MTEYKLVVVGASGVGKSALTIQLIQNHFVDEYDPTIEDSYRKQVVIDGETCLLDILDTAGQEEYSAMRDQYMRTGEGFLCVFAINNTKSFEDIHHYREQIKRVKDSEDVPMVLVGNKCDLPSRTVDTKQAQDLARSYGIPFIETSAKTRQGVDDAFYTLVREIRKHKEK
Method in brief: as §1

KRas WT = molecular target: T3, KRas WT (Homo sapiens, UniProt P01116); assay: as above; details: 60-minute incubation at room temperature, 1% DMSO, pH 7.5
T3 construct: Biotinylated KRas (corresponding to amino acids 1-169, produced at Accelegan Inc.); biotin (biotinylated); purchased Accelegan Inc
T3 sequence (P01116 1-169 isoform P01116-2): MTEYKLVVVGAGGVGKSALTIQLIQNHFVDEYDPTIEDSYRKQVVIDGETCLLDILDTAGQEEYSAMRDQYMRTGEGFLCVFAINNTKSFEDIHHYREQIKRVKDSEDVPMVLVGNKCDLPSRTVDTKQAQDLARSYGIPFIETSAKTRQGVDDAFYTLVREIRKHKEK
Method in brief: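 Assay buffer was HEPES (50 mM, pH 7.5) with MgCl2 (5 mM), DTT (1 mM) and Tween-20 (0.005%). Biotinylated KRas spanning residues 1-169 met tracer, terbium streptavidin and compound (1% DMSO, final) for 60 minutes at ambient temperature before reading. POC values were fitted for IC50.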

[1] = molecular target: T4, KRas-mediated phosphorylation of ERK in MKN1 cells (Homo sapiens, UniProt P01116); assay: Inhibition of KRas-mediated phosphorylation of ERK (HTRF), MKN1 cells; type: cell-based; details: MKN1 cells (KRas WT); HTRF pERK; 3 h incubation
T4 construct: pERK HTRF read-out
T4 sequence (P01116 1-188 isoform P01116-2): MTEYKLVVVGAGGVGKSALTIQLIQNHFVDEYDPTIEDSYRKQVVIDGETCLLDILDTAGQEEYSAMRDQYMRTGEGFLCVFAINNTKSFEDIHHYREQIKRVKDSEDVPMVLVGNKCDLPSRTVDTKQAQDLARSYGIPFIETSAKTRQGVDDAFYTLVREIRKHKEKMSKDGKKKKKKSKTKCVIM
Procedure: Inhibition of KRas Phosphorylation of ERK (HTRF) by Exemplary Compounds of Formula (Ia) or (Ib)
Cisbio HTRF Advanced pERK Assay Catalog #64AERPEH • Cells: MKN1, PSN1 • Procedure: • 1. Day 1: Seed 6,000 cells/well −25 μl/well in 384-well white solid bottom plate; RPM1_10% FBS. Incubate overnight at 37 °C/5% CO2. • 2.

[2] = molecular target: T5, KRas-mediated phosphorylation of ERK in A549 cells (Homo sapiens, UniProt P01116, G12S); assay: Inhibition of KRas-mediated phosphorylation of ERK (HTRF), A549 cells; type: cell-based; details: HTRF pERK, 3 h incubation
T5 construct: pERK HTRF read-out
T5 sequence (P01116 1-188 isoform P01116-2 G12S): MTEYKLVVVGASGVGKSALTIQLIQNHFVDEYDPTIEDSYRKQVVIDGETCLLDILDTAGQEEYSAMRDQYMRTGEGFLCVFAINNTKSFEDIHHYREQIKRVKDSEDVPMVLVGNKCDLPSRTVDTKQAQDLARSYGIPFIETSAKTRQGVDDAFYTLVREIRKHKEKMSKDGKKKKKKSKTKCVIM

[3] = molecular target: T6, KRas-mediated phosphorylation of ERK in H358 cells (Homo sapiens, UniProt P01116, G12C); assay: Inhibition of KRas-mediated phosphorylation of ERK (HTRF), H358 cells; type: cell-based; details: HTRF pERK, 3 h incubation
T6 construct: pERK HTRF read-out
T6 sequence (P01116 1-188 isoform P01116-2 G12C): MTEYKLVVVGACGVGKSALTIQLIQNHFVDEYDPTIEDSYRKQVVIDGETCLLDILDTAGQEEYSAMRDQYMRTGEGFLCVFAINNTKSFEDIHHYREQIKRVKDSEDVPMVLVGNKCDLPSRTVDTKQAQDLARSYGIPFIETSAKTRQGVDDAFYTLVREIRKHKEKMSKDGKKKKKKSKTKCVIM

| IC50 (KRas G12C) [nM] | IC50 (KRas G12S) [nM] | IC50 (KRas WT) [nM] | IC50 [1] [nM] | IC50 [2] [nM] | IC50 [3] [nM] | Structure (SMILES) |
| --- | --- | --- | --- | --- | --- | --- |
| 57 | 26 | 154 | 5200 | 141 | 9020 | C=Cc1ccn(C(=O)C2CCN(c3nc(OC[C@@]45CCCN4C[C@H](F)C5)nc4c(F)c(-c5cc(O)cc6ccc(F)c(CC)c56)ncc34)CC2)n1 [Example 66, (1-(7-(8-ethyl-7-fluoro-3-hydroxynaphthalen-1-yl)-8-fluoro-2-(((2R,7aS)-2-fluorotetrahydro-1H-pyrrolizin-7a(5H)-yl)methoxy)pyrido[4,3-d]pyrimidin-4-yl)piperidin-4-yl)(3-vinyl-1H-pyrazol-1-yl)methanone] |
| 51 | 17 | 15 | 3290 | 113 | 3080 | C#Cc1c(F)ccc2cc(O)cc(-c3ncc4c(N5CCC(C(=O)n6ccc(C)n6)CC5)nc(OC[C@@]56CCCN5C[C@H](F)C6)nc4c3F)c12 [Example 67, (1-(7-(8-ethynyl-7-fluoro-3-hydroxynaphthalen-1-yl)-8-fluoro-2-(((2R,7aS)-2-fluorotetrahydro-1H-pyrrolizin-7a(5H)-yl)methoxy)pyrido[4,3-d]pyrimidin-4-yl)piperidin-4-yl)(3-methyl-1H-pyrazol-1-yl)methanone] |
| 5 | 6 | 10 | 12 | 77 | 34 | CCc1c(F)ccc2cc(O)cc(-c3ncc4c(N5CCCCC(C(=O)n6ccc(C)n6)C5)nc(OC[C@@]56CCCN5C[C@H](F)C6)nc4c3F)c12 (stereo partly drawn) [Example 68, (1-(7-(8-ethyl-7-fluoro-3-hydroxynaphthalen-1-yl)-8-fluoro-2-(((2R,7aS)-2-fluorotetrahydro-1H-pyrrolizin-7a(5H)-yl)methoxy)pyrido[4,3-d]pyrimidin-4-yl)azepan-3-yl)(3-methyl-1H-pyrazol-1-yl)methanone] |
| 79 | 124 | 6 | 31 | 4810 | 1120 | CCc1c(F)ccc2cc(O)cc(-c3ncc4c(N5CCCN(C(=O)n6ccc(C)n6)CC5)nc(OC[C@@]56CCCN5C[C@H](F)C6)nc4c3F)c12 [Example 69, (4-(7-(8-ethyl-7-fluoro-3-hydroxynaphthalen-1-yl)-8-fluoro-2-(((2R,7aS)-2-fluorotetrahydro-1H-pyrrolizin-7a(5H)-yl)methoxy)pyrido[4,3-d]pyrimidin-4-yl)-1,4-diazepan-1-yl)(3-methyl-1H-pyrazol-1-yl)methanone] |
| 31 | 17 | 27 | 5100 | 85 | 7290 | CCc1c(F)ccc2cc(O)cc(-c3ncc4c(N5CCC(C(=O)n6ccc(C)n6)CC5)nc(OC[C@@]56CCCN5C/C(=C\F)C6)nc4c3F)c12 [Example 70, (S,Z)-(1-(7-(8-ethyl-7-fluoro-3-hydroxynaphthalen-1-yl)-8-fluoro-2-((2-(fluoromethylene)tetrahydro-1H-pyrrolizin-7a(5H)-yl)methoxy)pyrido[4,3-d]pyrimidin-4-yl)piperidin-4-yl)(3-methyl-1H-pyrazol-1-yl)methanone] |
| 1690 | 2500 | 2090 | 8470 | 2030 | 930 | CCc1c(F)ccc2cc(O)cc(-c3ncc4c(N5CC[C@@H](C(=O)n6ccc(C)n6)[C@H](C)C5)nc(OC[C@@]56CCCN5C[C@H](F)C6)nc4c3F)c12 [Example 71, ((3S,4R)-1-(7-(8-ethyl-7-fluoro-3-hydroxynaphthalen-1-yl)-8-fluoro-2-(((2R,7aS)-2-fluorotetrahydro-1H-pyrrolizin-7a(5H)-yl)methoxy)pyrido[4,3-d]pyrimidin-4-yl)-3-methylpiperidin-4-yl)(3-methyl-1H-pyrazol-1-yl)methanone] |
| 408 | 274 | 572 | 3330 | 748 | 7290 | CCc1c(F)ccc2cc(O)cc(-c3ncc4c(N5CCC(C(=O)n6cc(C(C)(C)C)cn6)CC5)nc(OC[C@@]56CCCN5C[C@H](F)C6)nc4c3F)c12 [Example 72, (4-(tert-butyl)-1H-pyrazol-1-yl)(1-(7-(8-ethyl-7-fluoro-3-hydroxynaphthalen-1-yl)-8-fluoro-2-(((2R,7aS)-2-fluorotetrahydro-1H-pyrrolizin-7a(5H)-yl)methoxy)pyrido[4,3-d]pyrimidin-4-yl)piperidin-4-yl)methanone] |
| 888 | 2960 | 1080 | 5570 | 8480 | 4500 | CCc1c(F)ccc2cc(O)cc(-c3ncc4c(N5CCC(C(=O)n6nc(C)c(C)c6C)CC5)nc(OC[C@@]56CCCN5C[C@H](F)C6)nc4c3F)c12 [Example 73, (1-(7-(8-ethyl-7-fluoro-3-hydroxynaphthalen-1-yl)-8-fluoro-2-(((2R,7aS)-2-fluorotetrahydro-1H-pyrrolizin-7a(5H)-yl)methoxy)pyrido[4,3-d]pyrimidin-4-yl)piperidin-4-yl)(3,4,5-trimethyl-1H-pyrazol-1-yl)methanone] |
| 578 | 885 | 798 | 3330 | 464 | 2290 | CCc1c(F)ccc2cc(O)cc(-c3ncc4c(N5CCC(C(=O)n6nc(C)cc6C)CC5)nc(OC[C@@]56CCCN5C[C@H](F)C6)nc4c3F)c12 [Example 74, (3,5-dimethyl-1H-pyrazol-1-yl)(1-(7-(8-ethyl-7-fluoro-3-hydroxynaphthalen-1-yl)-8-fluoro-2-(((2R,7aS)-2-fluorotetrahydro-1H-pyrrolizin-7a(5H)-yl)methoxy)pyrido[4,3-d]pyrimidin-4-yl)piperidin-4-yl)methanone] |
| 234 | 346 | 378 | 1390 | 312 | 3110 | CCc1c(F)ccc2cc(O)cc(-c3ncc4c(N5CCC(C(=O)n6ccc(C(C)(C)C)n6)CC5)nc(OC[C@@]56CCCN5C[C@H](F)C6)nc4c3F)c12 [Example 75, (3-(tert-butyl)-1H-pyrazol-1-yl)(1-(7-(8-ethyl-7-fluoro-3-hydroxynaphthalen-1-yl)-8-fluoro-2-(((2R,7aS)-2-fluorotetrahydro-1H-pyrrolizin-7a(5H)-yl)methoxy)pyrido[4,3-d]pyrimidin-4-yl)piperidin-4-yl)methanone] |
| 124 | 150 | 166 | 2060 | 223 | 4720 | CCc1c(F)ccc2cc(O)cc(-c3ncc4c(N5CCC(C(=O)n6ccc(C(C)C)n6)CC5)nc(OC[C@@]56CCCN5C[C@H](F)C6)nc4c3F)c12 [Example 76, (1-(7-(8-ethyl-7-fluoro-3-hydroxynaphthalen-1-yl)-8-fluoro-2-(((2R,7aS)-2-fluorotetrahydro-1H-pyrrolizin-7a(5H)-yl)methoxy)pyrido[4,3-d]pyrimidin-4-yl)piperidin-4-yl)(3-isopropyl-1H-pyrazol-1-yl)methanone] |
| 159 | 87 | 161 | 4560 | > 10000 | 1360 | CCc1c(F)ccc2cc(O)cc(-c3ncc4c(N5CCOCC(C(=O)n6ccc(C)n6)C5)nc(OC[C@@]56CCCN5C[C@H](F)C6)nc4c3F)c12 (stereo partly drawn) [Example 77, (4-(7-(8-ethyl-7-fluoro-3-hydroxynaphthalen-1-yl)-8-fluoro-2-(((2R,7aS)-2-fluorotetrahydro-1H-pyrrolizin-7a(5H)-yl)methoxy)pyrido[4,3-d]pyrimidin-4-yl)-1,4-oxazepan-6-yl)(3-methyl-1H-pyrazol-1-yl)methanone] |
| 26 | 594 | 246 | 1450 | 785 | 23 | CCc1c(F)ccc2cc(O)cc(-c3ncc4c(N5CC[C@@H](C(=O)n6ccc(C)n6)[C@@H](C)C5)nc(OC[C@@]56CCCN5C[C@H](F)C6)nc4c3F)c12 [Example 79, ((3R,4R)-1-(7-(8-ethyl-7-fluoro-3-hydroxynaphthalen-1-yl)-8-fluoro-2-(((2R,7aS)-2-fluorotetrahydro-1H-pyrrolizin-7a(5H)-yl)methoxy)pyrido[4,3-d]pyrimidin-4-yl)-3-methylpiperidin-4-yl)(3-methyl-1H-pyrazol-1-yl)methanone] |
| 307 | 197 | 432 | 3380 | 431 | 9700 | CCc1c(F)ccc2cc(O)cc(-c3ncc4c(N5CCC(C(=O)n6cc(C(C)C)cn6)CC5)nc(OC[C@@]56CCCN5C[C@H](F)C6)nc4c3F)c12 [Example 80, (1-(7-(8-ethyl-7-fluoro-3-hydroxynaphthalen-1-yl)-8-fluoro-2-(((2R,7aS)-2-fluorotetrahydro-1H-pyrrolizin-7a(5H)-yl)methoxy)pyrido[4,3-d]pyrimidin-4-yl)piperidin-4-yl)(4-isopropyl-1H-pyrazol-1-yl)methanone] |
